Test systems include LOX IMVI; SR; MDA-MB-231; SK-OV-3; ACHN; A498; CAKI-1; NCI-H226; UACC-62; KM12; PC-3; K562; A549; SF-539; IGROV-1; SF-268; HT-29; M14; HOP-92; BT-549.
Holding throughout (experiment): inhibition of tumour cell growth, NCI panel, 48 h

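1) Cells in 96-well plates. 2) Compound, 48 h, 5 concentrations. 3) Linear interpolation between surrounding doses. 4) Unreached endpoint = highest concentration. Abbreviation: GI50, concentration required for 50% inhibition of growth.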 Active and inactive are the calls of the source. Cut-off read from the data, not from the text of the source: active = GI50 up to about 1.1 µM and inactive = higher.

In the case of `Cc1ccc(NCCCN2CCN(CCCNc3ccc(C)c4sc5ccccc5c(=O)c34)CC2)c2c(=O)c3ccccc3sc12`, the GI50 is 98.4 µM (inactive) with LOX IMVI; > 100 µM (inactive) with SR; > 100 µM (inactive) in the test on MDA-MB-231; > 100 µM (inactive) in the test with SK-OV-3; > 100 µM (inactive) with ACHN; 82 µM (inactive) with A498. The GI50 with CAKI-1 is > 100 µM (inactive); with NCI-H226 it was > 100 µM (inactive); in the test with UACC-62, 68.7 µM (inactive); in the test with KM12, > 100 µM (inactive); in the test on PC-3, 21.4 µM (inactive); in the test on K562 it was > 100 µM (inactive). The GI50 was > 100 µM (inactive) with A549; > 100 µM (inactive) with SF-539; > 100 µM (inactive) with IGROV-1; 34.2 µM (inactive) in the test with SF-268; > 100 µM (inactive) with HT-29; > 100 µM (inactive) in the test with M14.

As to `CCOC(=O)c1c(NNc2ccccc2)nc2ccccc2c1-c1ccccc1`, the GI50 in the test with LOX IMVI is 20.2 µM (inactive); in the test on SR, 21.4 µM (inactive); in the test on SK-OV-3, 65.5 µM (inactive); in the test with ACHN it was 39.5 µM (inactive); with A498, > 100 µM (inactive); in the test with CAKI-1, 37.1 µM (inactive). The GI50 in the test on NCI-H226 is 28.2 µM (inactive); in the test on UACC-62 it was 16.6 µM (inactive); with KM12, 31.4 µM (inactive); in the test on HOP-92, 27.9 µM (inactive); with K562, 22.5 µM (inactive); with A549, 34.5 µM (inactive). The GI50 with SF-539 was 25.6 µM (inactive); with IGROV-1, 42.4 µM (inactive); with SF-268, 31.1 µM (inactive); in the test with HT-29 it was 32.3 µM (inactive); with M14 it was 27.3 µM (inactive).

For `Cc1cccc(NC2=NCCO2)c1Cl`, the GI50 in the test on SR, with MDA-MB-231, in the test on SK-OV-3, in the test with ACHN, in the test with A498 and with NCI-H226 was > 100 µM (inactive) throughout. For the same compound, the GI50 with UACC-62 was > 100 µM (inactive); in the test on KM12, > 100 µM (inactive); with HOP-92 it was 32.7 µM (inactive); in the test with K562, > 100 µM (inactive); with A549, > 100 µM (inactive); in the test on SF-539, > 100 µM (inactive). Also, the GI50 with IGROV-1, in the test with SF-268, with HT-29 and in the test with M14 was > 100 µM (inactive) each time.

For `COc1cc(Oc2nc3cc(F)c(F)cc3nc2-c2ccccc2)cc(OC)c1OC`, the GI50 in the test on LOX IMVI is 81.8 µM (inactive); in the test with SR, 78.9 µM (inactive); with SK-OV-3, > 100 µM (inactive); in the test on ACHN it was 43.5 µM (inactive); with A498 it was > 100 µM (inactive); in the test with CAKI-1 it was 46 µM (inactive). Moreover, the GI50 in the test with NCI-H226 is 45.5 µM (inactive); in the test on UACC-62 it was 25.8 µM (inactive); in the test with KM12, 35 µM (inactive); in the test with BT-549, > 100 µM (inactive); with PC-3 it was 40.3 µM (inactive); in the test on HOP-92 it was > 100 µM (inactive). The GI50 in the test with A549 was > 100 µM (inactive); with SF-539, 26.8 µM (inactive); with IGROV-1, > 100 µM (inactive); in the test on SF-268, 59 µM (inactive); in the test on HT-29 it was 89.3 µM (inactive); in the test with M14, 45.3 µM (inactive).

`NC(=O)c1ncn(C2C=CC(CP(=O)(O)O)C2)c1N` (configuration not stated): the GI50 in the test on LOX IMVI, with SR, in the test on MDA-MB-231, in the test on SK-OV-3, with ACHN and in the test on CAKI-1 was > 100 µM (inactive) each time. For the same compound, the GI50 with NCI-H226, with UACC-62, in the test with KM12, with PC-3, in the test on HOP-92 and with K562 was > 100 µM (inactive) each time. Moreover, the GI50 with A549, in the test on SF-539, with IGROV-1, in the test on SF-268, in the test on HT-29 and in the test with M14 was > 100 µM (inactive) each time.

Take `CCCC1C(C#N)(C#N)C(C#N)=C(N)C1(C)C(C)=O` (configuration not stated): the GI50 was > 100 µM (inactive) in the test with LOX IMVI; > 100 µM (inactive) in the test on MDA-MB-231; > 100 µM (inactive) with SK-OV-3; > 100 µM (inactive) in the test on ACHN; > 100 µM (inactive) in the test on A498; 10.1 µM (inactive) in the test on CAKI-1. Moreover, the GI50 is 43.7 µM (inactive) in the test on NCI-H226; > 100 µM (inactive) with UACC-62; > 100 µM (inactive) in the test on KM12; > 100 µM (inactive) in the test on PC-3; 36.3 µM (inactive) in the test on HOP-92; 37.3 µM (inactive) with K562. For the same compound, the GI50 with A549, in the test with SF-539, in the test with IGROV-1, in the test on SF-268, with HT-29 and in the test with M14 was > 100 µM (inactive) throughout.

In the case of `COc1cc(Oc2c(C)c(Cl)c(OC)c(Cl)c2OC)c2c(c1Cl)COC2=O`, the GI50 is 17 µM (inactive) with LOX IMVI; 3.85 µM (inactive) in the test on SR; 24.2 µM (inactive) with MDA-MB-231; 41.5 µM (inactive) in the test with SK-OV-3; 12.9 µM (inactive) in the test on ACHN; 49.7 µM (inactive) in the test on A498. Besides, the GI50 in the test on CAKI-1 was 10.4 µM (inactive); with NCI-H226 it was 27.9 µM (inactive); in the test with UACC-62, 33.7 µM (inactive); with KM12 it was 20.9 µM (inactive); in the test with BT-549, 43.6 µM (inactive); with HOP-92, 54 µM (inactive). The GI50 in the test with K562 is 2.32 µM (inactive); in the test on A549, 34.4 µM (inactive); in the test with SF-539, 31.5 µM (inactive); in the test with IGROV-1, 17.6 µM (inactive); in the test with SF-268, 21.8 µM (inactive); in the test with HT-29, 9.23 µM (inactive). The GI50 with M14 is 27.7 µM (inactive).

`CC1(C)[C@@H]2CC[C@@]1(C)[C@@H]1O[C@@H](O[C@@H](CN)c3cc(Cl)c(OCc4ccccc4)c(OCc4ccccc4)c3)C[C@H]21`: the GI50 was 0.166 µM (active) in the test with LOX IMVI; 0.0627 µM (active) in the test on SR; 0.155 µM (active) in the test with MDA-MB-231; 0.175 µM (active) with SK-OV-3; 0.169 µM (active) in the test with ACHN; 0.199 µM (active) with A498. The GI50 in the test on CAKI-1 is 0.165 µM (active); in the test with NCI-H226 it was 0.184 µM (active); in the test on KM12, 0.169 µM (active); in the test on PC-3, 0.158 µM (active); with HOP-92, 0.171 µM (active); with K562, 0.156 µM (active). Moreover, the GI50 with A549 is 0.163 µM (active); in the test on SF-539 it was 0.196 µM (active); in the test on IGROV-1, 0.179 µM (active); in the test with SF-268 it was 0.192 µM (active); with HT-29, 0.151 µM (active); in the test on M14, 0.164 µM (active).

For `CNC(=O)C1CCC(=O)N1CN(C(C)=O)c1ccccc1` (configuration not stated), the GI50 in the test with LOX IMVI is > 100 µM (inactive); in the test on SR it was 13.6 µM (inactive); in the test on MDA-MB-231 it was > 100 µM (inactive); with SK-OV-3 it was > 100 µM (inactive); in the test on ACHN, > 100 µM (inactive); in the test on A498, > 100 µM (inactive). Moreover, the GI50 in the test on CAKI-1, with NCI-H226, in the test with UACC-62, with KM12, in the test with PC-3 and with HOP-92 was > 100 µM (inactive) in each case. The GI50 with K562, in the test on A549, in the test with SF-539, in the test on IGROV-1, with SF-268 and in the test with HT-29 was > 100 µM (inactive) throughout. Besides, the GI50 with M14 was > 100 µM (inactive).

Take `CN(C)CCNc1nc2c(no[n+]2[O-])c2ccccc12.[O-][Cl+3]([O-])([O-])O`: the GI50 with LOX IMVI was 16.8 µM (inactive); in the test with SR, 15.1 µM (inactive); with MDA-MB-231, 14.8 µM (inactive); in the test on SK-OV-3, 32.1 µM (inactive); in the test with ACHN, 13.8 µM (inactive); with A498, 13.7 µM (inactive). In addition, the GI50 in the test with CAKI-1 was 26.1 µM (inactive); in the test on NCI-H226, 16.1 µM (inactive); in the test on UACC-62, 21 µM (inactive); in the test on KM12 it was 21.1 µM (inactive); with PC-3, 28 µM (inactive); in the test with HOP-92, 22.1 µM (inactive). The GI50 is 28.8 µM (inactive) with K562; 16.7 µM (inactive) in the test with A549; 11.5 µM (inactive) in the test on SF-539; 18 µM (inactive) in the test with IGROV-1; 4.42 µM (inactive) with SF-268; 27.6 µM (inactive) with HT-29. In addition, the GI50 with M14 was 15.7 µM (inactive).

Regarding `Cc1ccccc1C(=O)NC(O)(C(F)(F)F)C(F)(F)F`, the GI50 in the test on LOX IMVI, with MDA-MB-231, in the test on SK-OV-3, in the test with ACHN, with A498 and in the test on CAKI-1 was > 100 µM (inactive) each time. Besides, the GI50 in the test with NCI-H226 is > 100 µM (inactive); in the test on KM12 it was 42.5 µM (inactive); in the test with PC-3, 25.5 µM (inactive); in the test with HOP-92 it was > 100 µM (inactive); in the test on K562 it was 57.9 µM (inactive); with A549 it was 82.4 µM (inactive). Besides, the GI50 in the test on SF-539 was > 100 µM (inactive); in the test with IGROV-1, > 100 µM (inactive); in the test with SF-268 it was > 100 µM (inactive); in the test with HT-29, 91.2 µM (inactive); in the test with M14, > 100 µM (inactive).

Source of the values: ChEMBL document CHEMBL1201862, “PubChem BioAssay data set” (2004).
